Target: BRAF target protein with V600E mutation (Homo sapiens, UniProt P15056, V600E)
Test: MALDI-MSI displacement competitive binding on malignant melanoma tissue sections
Details: for Isotope Signal: 1 hour, MS/MS m/z 389.1
Method: (1) Making 10 micrometer sectioning of the frozen Human Malignant Melanoma tissues performed at −20° C. Thereafter, (2) sample preparation was preformed by slowly thawing and drying the tumor sections at room temperature. Then, the sections were immersed into methanol for 5 min and dried at room temperature. Correspondingly, frozen Human healthy tissue resected from lymphoid nodes were handled in the same way, and used as negative controls. (3) Drug incubation was performed for one hour by using unlabeled ligand, here Vemurafenib, at a concentration of 100 nM (nanomolar) to determine the binding of the ligand molecule to its protein target. […] During titration experiments, the concentration of stable isotope labeled Vemurafenib was 100 nM, 1 μM, 10 μM and 100 μM, (micro Molar), respectively. (4) After incubation, the sections were washed by PBS 3 times and then followed by washing with MilliQ water 3 consecutive times, and (5) mass spectra were obtained using a MALDI LTQ-Orbitrap XL instrument (Thermo Scientific, Germany), and compound signals were obtained by the orbitrap and ion trap. Image analysis was conducted using ImageQuest (Thermo Scientific, Germany). For histological analysis, both H&E staining and immuno-histochemical analysis using monoclonal antibody against BRAF V600E were conducted.
The frozen Human Malignant Melanoma tissues were resected from lymphoid nodes, constituting the tumor tissue. The tissue sections were sections with 10 μm (micro meter) slices thick by the use of a cryostat, performed at −20° C. After sectioning, the slices were slowly thawed and dried at room temperature. Then, the sections were immersed into methanol for 5 min and dried at room temperature. Correspondingly, frozen Human healthy tissue resected from lymphoid nodes was used as negative controls.
Incubation was made for one hour by using unlabeled Vemurafenib at a concentration of 100 nM (nanomolar) to determine the binding of the drug molecule to its protein target. […] The incubation time during competitive binding was 1 hour. […] During titration experiments, the concentration of stable isotope labeled Vemurafenib was 100 nM, 1 μM, 10 μM and 100 μM, (micro Molar), respectively.
After incubation, the sections were washed by PBS 3 times and then followed by washing with MilliQ water 3 consecutive times.
The mass spectra were obtained using a MALDI LTQ-Orbitrap XL instrument (Thermo Scientific, Germany). The compound signals were obtained by the orbitrap and ion trap. Image analysis was conducted using ImageQuest (Thermo Scientific, Germany). For histological analysis, both H&E staining and immuno-histochemical analysis using monoclonal antibody against BRAF V600E were conducted.
Binding intensity was calculated by identifying the area of biding from the mass spec image and the intensity read is calculated by the ImageQuest software of the instrument from the signal and background data.

BRAF target protein with V600E mutation, sequence (P15056 whole entry V600E): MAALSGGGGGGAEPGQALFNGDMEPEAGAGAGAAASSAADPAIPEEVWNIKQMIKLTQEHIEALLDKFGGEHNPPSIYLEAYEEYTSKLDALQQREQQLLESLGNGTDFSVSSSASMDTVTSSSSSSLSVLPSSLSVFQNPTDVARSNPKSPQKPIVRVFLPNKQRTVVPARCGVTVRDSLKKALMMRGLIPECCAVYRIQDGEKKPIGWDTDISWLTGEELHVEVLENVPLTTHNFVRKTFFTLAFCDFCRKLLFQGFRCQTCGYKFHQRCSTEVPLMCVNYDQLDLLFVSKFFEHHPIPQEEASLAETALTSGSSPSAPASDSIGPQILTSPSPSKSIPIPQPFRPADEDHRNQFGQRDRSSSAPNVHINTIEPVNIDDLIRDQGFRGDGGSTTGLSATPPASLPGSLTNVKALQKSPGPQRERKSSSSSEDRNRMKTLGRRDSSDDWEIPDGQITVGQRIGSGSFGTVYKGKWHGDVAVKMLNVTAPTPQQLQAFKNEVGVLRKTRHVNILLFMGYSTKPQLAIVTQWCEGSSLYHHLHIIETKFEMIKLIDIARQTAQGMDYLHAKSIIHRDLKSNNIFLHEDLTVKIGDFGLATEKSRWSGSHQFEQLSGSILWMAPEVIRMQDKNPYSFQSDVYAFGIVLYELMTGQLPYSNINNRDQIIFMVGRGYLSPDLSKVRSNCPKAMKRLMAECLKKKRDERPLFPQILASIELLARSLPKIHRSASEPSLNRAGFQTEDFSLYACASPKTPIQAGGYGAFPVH

^13C-Vemurafenib
Isotope Signal (0.1 μM ^13C-Vemurafenib co-incubated with 100 nM Vemurafenib): 326
Competition with 100 nM Vemurafenib (1 μM ^13C-Vemurafenib co-administered, m/z 389.1, V600E patient tissue): outcompeting the 100 nM Vemurafenib
Isotope Signal (1 μM ^13C-Vemurafenib co-incubated with 100 nM Vemurafenib): 3233
Isotope Signal (10 μM ^13C-Vemurafenib co-incubated with 100 nM Vemurafenib): 29870
Isotope Signal (100 μM ^13C-Vemurafenib co-incubated with 100 nM Vemurafenib): 259400
